Measurements from publication PMC10206040, “Identification of novel anti-amoebic pharmacophores from kinase inhibitor chemotypes” (Frontiers in Microbiology, 2023).
“Also recorded” adds a separate entry of the source.

Tested on: Acanthamoeba castellanii T4 isolate (ATCC 50370) trophozoites
Assay: CellTiter-Glo 2.0 trophocidal assay, A. castellanii
Assay type: cell-based
Details: Acanthamoeba castellanii, ATCC50370, 72 h, logarithmic trophozoites, 72 h, n = 3; read-out: Acanthamoeba castellanii EC50 ± SD
Text: This isolate was purchased from American Type Culture Collection (ATCC). […] For sub-culturing, cells were mechanically harvested to detach the cells from the culture flasks.
In the case of `Cn1cc(Nc2nc(N3CCOCC3)c3nc[nH]c3n2)cn1` [Compound S22], the EC50 is reported as > 20 µM.
In the case of `Fc1ccc(Nc2nc(NCC(F)(F)F)c3nc[nH]c3n2)cc1` [Compound S23], the EC50 is reported as > 20 µM.
For `Cn1cc(Nc2nc(NCCCC(F)(F)F)c3nc[nH]c3n2)cn1` [Compound S24], the EC50 was > 20 µM.
For `c1cc(-c2c[nH]c3ncc(-c4cnn(C5CCOCC5)c4)cc23)ccn1` [Compound S31], the EC50 was > 20 µM.

Same assay, conditions: Acanthamoeba castellanii, ATCC50370, 72 h, read-out: Acanthamoeba castellanii EC50 ± SD
Molecule `c1cncc(Nc2nccc(-c3cnn4ncccc34)n2)c1` [Compound 2b] has an EC50 of 1.5 ± 0.12 µM.
Molecule `Cc1ccc(Nc2nccc(-c3cnn4ncccc34)n2)cn1` [Compound 2d] has an EC50 of 0.92 ± 0.3 µM.

Tested on: Naegleria fowleri (ATCC 30215) trophozoites
Assay: microbe, parasite or virus in culture
Details: Naegleria fowleri, 72 h, read-out: Naegleria fowleri EC50 ± SD, logarithmic trophozoites, 72 h, n = 3 (converted)
Method: Trophozoites were routinely grown axenically at 34°C, 5% CO2, in Nelson’s complete medium (NCM) in non-vented 75 cm^2 tissue culture flasks (Olympus), until the cells were 80–90% confluent. For sub-culturing, cells were placed on ice to detach the cells from the culture flasks. […] Complete NCM media is prepared by the addition of 10% fetal bovine serum (FBS) and 100 U/mL penicillin, and 100 μg/mL streptomycin antibiotics.
Trophozoites were routinely cultured as described above and only logarithmic trophozoites were used.
All assays were incubated at each of the parasites’ representative growth temperatures, described above, for 72 h. At the 72-h time point, 25 μL of CellTiter-Glo 2.0 reagent was added to all wells of the 96-well plates by hand. The plates were protected from light and contents were mixed using an orbital shaker at 300 rpm at room temperature for 2 min to induce cell lysis. After shaking, the plates were equilibrated at room temperature for 10 min to stabilize the luminescent signal. The ATP luminescent signal (relative light units; RLUs) were measured […] with a SpectraMax I3X plate reader (Molecular Devices, Sunnyvale, CA, United States). […] Values reported are from a minimum of three biological replicates with standard deviation.
Molecule `c1cncc(Nc2nccc(-c3cnn4ncccc34)n2)c1` [Compound 2b] has an EC50 of 0.3 ± 0.21 µM.
For `Cc1ccc(Nc2nccc(-c3cnn4ncccc34)n2)cn1` [Compound 2d], the EC50 was 0.43 ± 0.13 µM.
`CN(C)Cc1ccc(-c2cc3c(-c4cnn(C)c4)ccnc3[nH]2)cc1` [Compound 5c] showed an EC50 of 5.6 ± 0.29 µM.
With `Cn1cc(Nc2nc(N3CCOCC3)c3nc[nH]c3n2)cn1` [Compound S22] the EC50 was > 20 µM.
In the case of `Fc1ccc(Nc2nc(NCC(F)(F)F)c3nc[nH]c3n2)cc1` [Compound S23], the EC50 is reported as > 20 µM.
In the case of `Cn1cc(Nc2nc(NCCCC(F)(F)F)c3nc[nH]c3n2)cn1` [Compound S24], the EC50 is reported as > 20 µM.
With `c1cc(-c2c[nH]c3ncc(-c4cnn(C5CCOCC5)c4)cc23)ccn1` [Compound S31] the EC50 was > 20 µM.

Same assay, conditions: Naegleria fowleri, ATCC30215, 72 h, read-out: Naegleria fowleri EC50 ± SD, logarithmic trophozoites, 72 h, n = 3 (converted)
For `Cn1cc(-c2cnc3[nH]cc(-c4cncc(C#N)c4)c3c2)cn1` [Compound 4e], the EC50 was > 20 µM.
For `FC1(F)CCN(c2nc(Nc3ccsc3)nc3[nH]cnc23)CC1` [Compound 6e], the EC50 was > 20 µM.

Tested on: Balamuthia mandrillaris (CDC:V039; ATCC 50209) trophozoites
Assay: CellTiter-Glo 2.0 trophocidal assay, B. mandrillaris
Assay type: cell-based
Details: Balamuthia mandrillaris, ATCC50209, 72 h, logarithmic trophozoites, 72 h, n = 3; read-out: Balamuthia mandrillaris EC50 ± SD
Text: For sub-culturing, 0.25% Trypsin–EDTA (Gibco) cell detachment reagent was used to detach the cells from the culture flasks.
Molecule `Cn1cc(-c2cnc3[nH]cc(-c4cncc(C#N)c4)c3c2)cn1` [Compound 4e] has an EC50 of 8.3 ± 1.3 µM.
In the case of `Cn1cc(Nc2nc(N3CCOCC3)c3nc[nH]c3n2)cn1` [Compound S22], the EC50 is reported as > 20 µM.
With `Fc1ccc(Nc2nc(NCC(F)(F)F)c3nc[nH]c3n2)cc1` [Compound S23] the EC50 was > 20 µM.
For `Cn1cc(Nc2nc(NCCCC(F)(F)F)c3nc[nH]c3n2)cn1` [Compound S24], the EC50 was > 20 µM.
With `c1cc(-c2c[nH]c3ncc(-c4cnn(C5CCOCC5)c4)cc23)ccn1` [Compound S31] the EC50 was > 20 µM.

Same assay, conditions: Balamuthia mandrillaris, ATCC50209, 72 h, read-out: Balamuthia mandrillaris EC50 ± SD
For `c1cncc(Nc2nccc(-c3cnn4ncccc34)n2)c1` [Compound 2b], the EC50 was 5 ± 0.1 µM.
With `Cc1ccc(Nc2nccc(-c3cnn4ncccc34)n2)cn1` [Compound 2d] the EC50 was 1.6 ± 0.1 µM.

Same assay, conditions: Balamuthia mandrillaris, ATCC50209, 72 h, read-out: Balamuthia mandrillaris EC50 ± SD, logarithmic trophozoites, 72 h, n = 3 (converted)
For `CN(C)Cc1ccc(-c2cc3c(-c4cnn(C)c4)ccnc3[nH]2)cc1` [Compound 5c], the EC50 was 12 ± 0.09 µM.

Tested on: not listed separately
Assay: Human fetal lung fibroblast (MRC5) cell cytotoxicity assay (resazurin)
Details: human
Method: (§1) Intermediate plates were made as described, adding 95 μL of DMEM complete media to 5 μL of compound per well setting a 5% DMSO amount. Log-phase MRC5 cells were removed from a T-75 TC flask using TrypLE® Express (Thermo®) and dispersed by gentle pipetting. Cell density was adjusted to working concentration in prewarmed DMEM medium: 25,000 cells in 90 μL of culture were plated in 96-well transparent Nunclon plates and allowed to settle for 24 h at 37°C and 5% CO2. […] Plates were incubated for 48 h at 37°C and 5% CO2. At 4 h prior to fluorescence measurement, 20 μL of 500 μM resazurin solution was added.
(§2) A four-parameter equation was used to fit the dose–response curves and determination of EC50 by SigmaPlot ® 13.0 software. Assays were performed in duplicate at least twice for positive compounds, to achieve a minimal […] per dose response.
In the case of `CN(C)Cc1ccc(-c2cc3c(-c4cnn(C)c4)ccnc3[nH]2)cc1` [Compound 5c], the CC50 at 48 h is reported as 11 ± 0.9 µM.

Same assay, conditions: human, MRC5 cells (human fetal lung fibroblasts)
In the case of `c1cncc(Nc2nccc(-c3cnn4ncccc34)n2)c1` [Compound 2b], the CC50 at 48 h is reported as > 50 µM.
In the case of `Cc1ccc(Nc2nccc(-c3cnn4ncccc34)n2)cn1` [Compound 2d], the CC50 at 48 h is reported as > 50 µM.
In the case of `Cn1cc(-c2cnc3[nH]cc(-c4cncc(C#N)c4)c3c2)cn1` [Compound 4e], the CC50 at 48 h is reported as > 50 µM.
In the case of `FC1(F)CCN(c2nc(Nc3ccsc3)nc3[nH]cnc23)CC1` [Compound 6e], the CC50 at 48 h is reported as > 50 µM.

Tested on: MRC5 cells
Assay: as above
Details: Table S2; in µM
Method: as §1, §2
In the case of `Cn1cc(-c2cnc3[nH]cc(-c4cncc(C#N)c4)c3c2)cn1` [Compound 4e], the “MRC5 TC50 ± Standard Deviation” value is reported as > 50.
With `CN(C)Cc1ccc(-c2cc3c(-c4cnn(C)c4)ccnc3[nH]2)cc1` [Compound 5c] the “MRC5 TC50 ± Standard Deviation” value was 14 ± 2.4.
With `FC1(F)CCN(c2nc(Nc3ccsc3)nc3[nH]cnc23)CC1` [Compound 6e] the “MRC5 TC50 ± Standard Deviation” value was > 50.
For `Cn1cc(Nc2nc(N3CCOCC3)c3nc[nH]c3n2)cn1` [Compound S22], the “MRC5 TC50 ± Standard Deviation” value was 19 ± 0.42.
For `Fc1ccc(Nc2nc(NCC(F)(F)F)c3nc[nH]c3n2)cc1` [Compound S23], the “MRC5 TC50 ± Standard Deviation” value was > 50.
In the case of `Cn1cc(Nc2nc(NCCCC(F)(F)F)c3nc[nH]c3n2)cn1` [Compound S24], the “MRC5 TC50 ± Standard Deviation” value is reported as 50 ± 0.
With `c1cc(-c2c[nH]c3ncc(-c4cnn(C5CCOCC5)c4)cc23)ccn1` [Compound S31] the “MRC5 TC50 ± Standard Deviation” value was 7.9 ± 2.3.

Tested on: not listed separately
Assay: Rat skeletal muscle cell line (L6) cytotoxicity assay (resazurin)
Details: rat
Method: (§3) One hundred microliters (100 μL) per well of culture medium containing the compounds and controls were added to L6 cells previously cultured (4 × 10^3 L6 cells per well). After 72 h at 37°C the medium was exchanged, and the viable cell number was determined by resazurin (Sigma–Aldrich) reduction. 20 μl of resazurin (1.1 mg/ml) was added to each well and incubated in the dark for 2 h at 37°C.
With `CN(C)Cc1ccc(-c2cc3c(-c4cnn(C)c4)ccnc3[nH]2)cc1` [Compound 5c] the CC50 at 72 h was < 0.62 µM.

Same assay, conditions: rat, L6 cells (rat skeletal muscle cell line)
With `FC1(F)CCN(c2nc(Nc3ccsc3)nc3[nH]cnc23)CC1` [Compound 6e] the CC50 at 72 h was > 50 µM.

Tested on: L6 cells
Assay: as above
Details: Table S2; in µM
Method: as §3
In the case of `Cn1cc(-c2cnc3[nH]cc(-c4cncc(C#N)c4)c3c2)cn1` [Compound 4e], the “L6 TC50 ± Standard Deviation” value is reported as > 50.
In the case of `CN(C)Cc1ccc(-c2cc3c(-c4cnn(C)c4)ccnc3[nH]2)cc1` [Compound 5c], the “L6 TC50 ± Standard Deviation” value is reported as < 0.62.
In the case of `FC1(F)CCN(c2nc(Nc3ccsc3)nc3[nH]cnc23)CC1` [Compound 6e], the “L6 TC50 ± Standard Deviation” value is reported as > 50.
For `Cn1cc(Nc2nc(N3CCOCC3)c3nc[nH]c3n2)cn1` [Compound S22], the “L6 TC50 ± Standard Deviation” value was 11 ± 1.0.
With `Fc1ccc(Nc2nc(NCC(F)(F)F)c3nc[nH]c3n2)cc1` [Compound S23] the “L6 TC50 ± Standard Deviation” value was > 50.
In the case of `Cn1cc(Nc2nc(NCCCC(F)(F)F)c3nc[nH]c3n2)cn1` [Compound S24], the “L6 TC50 ± Standard Deviation” value is reported as > 50.
For `c1cc(-c2c[nH]c3ncc(-c4cnn(C5CCOCC5)c4)cc23)ccn1` [Compound S31], the “L6 TC50 ± Standard Deviation” value was 5.7 ± 0.49.

Tested on: THP-1
Assay: Cytotoxicity assay in THP-1 (MTT)
Assay type: cell-based
Details: Table S2, 72 h, maximal concentration 50 μM
Method: Cytotoxicity assay in TH P-1. Cellular toxicity of all compounds was determined using the colorimetric MTT-based assay after incubation at 37 °C for 72 h in the presence of increasing concentrations of compounds (final maximal concentration was 50 μM in 0.5% DMSO per well) [ 1] . The results are expressed […]
cells. Assays were performed in duplicate at least twice to achieve a minimal n=3 per dose response. […]
Cytotoxicity assay in THP-1. Cellular toxicity of all compounds was determined using the colorimetric MTT-based assay after incubation at 37 °C for 72 h in the presence of increasing concentrations of compounds (final maximal concentration was 50 μM in 0.5% DMSO per well). […] Assays were performed in duplicate at least twice to achieve a minimal n=3 per dose response.
With `Cn1cc(-c2cnc3[nH]cc(-c4cncc(C#N)c4)c3c2)cn1` [Compound 4e] the “THP-1 TC50 ± Standard Deviation” value was > 50.
With `CN(C)Cc1ccc(-c2cc3c(-c4cnn(C)c4)ccnc3[nH]2)cc1` [Compound 5c] the “THP-1 TC50 ± Standard Deviation” value was < 0.62.
In the case of `FC1(F)CCN(c2nc(Nc3ccsc3)nc3[nH]cnc23)CC1` [Compound 6e], the “THP-1 TC50 ± Standard Deviation” value is reported as > 50.
With `Cn1cc(Nc2nc(N3CCOCC3)c3nc[nH]c3n2)cn1` [Compound S22] the “THP-1 TC50 ± Standard Deviation” value was 19 ± 0.52.
For `Fc1ccc(Nc2nc(NCC(F)(F)F)c3nc[nH]c3n2)cc1` [Compound S23], the “THP-1 TC50 ± Standard Deviation” value was > 50.
With `Cn1cc(Nc2nc(NCCCC(F)(F)F)c3nc[nH]c3n2)cn1` [Compound S24] the “THP-1 TC50 ± Standard Deviation” value was > 50.
With `c1cc(-c2c[nH]c3ncc(-c4cnn(C5CCOCC5)c4)cc23)ccn1` [Compound S31] the “THP-1 TC50 ± Standard Deviation” value was 5.8 ± 0.43.

Tested on: not given
Assay: not given
Details: dosed I.P. at 10 mg/kg; ref Tear et al., 2020; 10 mg/kg; cited from earlier work
In the case of `c1cncc(Nc2nccc(-c3cnn4ncccc34)n2)c1` [Compound 2b], the “in vivo toxicity in PK study” value is given as “in vivo toxicity was observed; also recorded: acute toxicity was seen”.

Same assay, conditions: dosed I.P. at 10 mg/kg; ref Tear et al., 2020; cited from earlier work
In the case of `Cc1ccc(Nc2nccc(-c3cnn4ncccc34)n2)cn1` [Compound 2d], the “in vivo toxicity in PK study” value is given as “acute toxicity was seen”.
